# Read-outs that look alike come from different tables or passages of the source.
# System: Human peripheral blood mononuclear cells (PBMC)
# Test: Cytokine induction in human cells (PBMC), cytokines by ELISA / multiplex bead assay
# Assay type: cell-based
# Conditions: for minimal effective concentration: human PBMC, 21-24 hours, lowest concentration giving cytokine level at least 2x negative control
# Protocol: Whole blood was obtained from healthy human donors and collected by venipuncture into vacutainer tubes or syringes containing EDTA. Human peripheral blood mononuclear cells (PBMC) were purified from the whole blood by density gradient centrifugation. Histopaque 1077 (15 mL, Sigma, St. Louis, Mo.) was transferred to 6×50 mL sterile polypropylene conical tubes. The Histopaque was overlayed with 15-25 mL of blood diluted 1:2 in Hank's Balanced Salts Solution (HBSS) (Gibco, Life Technologies, Grand Island, N.Y.). The tubes were then centrifuged at 1370 revolutions per minute (rpm) for 30 minutes at 20° C., with no brake (400×g, GH 3.8 A Rotor).
# The interface (buffy coat) containing the PBMC was collected and placed in a new sterile 50 mL conical polypropylene centrifuge tube. The PBMC were mixed with an equal volume of HBSS (about 20 mL from the interface and about 20 mL of HBSS), and then centrifuged at 1090 rpm, 10 minutes, 20° C., with brake (270×g, GH 3.8 A Rotor). After completing centrifugation, the cells were resuspended in 2-3 mL ACK Red blood cell lysis buffer (ammonium chloride potassium solution, Gibco, Life Technologies) and incubated for 2-5 minutes at 20° C. Next, HBSS (40 mL) was added to the cells, and the sample was centrifuged at 270×g for 10 minutes at 20° C. The supernatant was decanted, and the cell pellet was resuspended in 5 mL AIM V Medium (Gibco, Life Technologies). Cell aggregates and debris were removed by filtering the cell solution through a BD Falcon 70 micron nylon cell strainer (BD Biosciences, San Jose, Calif.).
# The number of viable cells was determined by counting with a Miltenyi FACS instrument (Miltenyi Biotec Inc., San Diego, Calif.) or by using a hemacytometer. For determining cell viability with a hemacytometer, the cells were diluted 1/10 in 0.4% trypan blue and HBSS (specifically, 50 microliter of trypan blue+40 microliter of HBSS+10 microliter of cell solution were added to a microfuge tube and mixed). Ten microliters of the diluted cells were then applied to the hemacytometer, and the number of viable PBMC were determined by microscopy.
# The PBMC sample was then resuspended in 96-well plates at a concentration of 8×10^5 cells/well in 0.1 mL of AIM-V medium. Each compound was solubilized in dimethyl sulfoxide (DMSO) to create a 3 mM stock solution. The stock solution was then further diluted with AIM-V medium to prepare the serial dilutions. The diluted compound (100 microliters) was then transferred to the PBMCs to produce testing sets with final compound concentrations of either 30, 10, 3.3, 1.1, 0.37, 0.12, 0.04, 0.01 micromolar (testing set A); 100, 30, 10, 3.3, 1.1, 0.37, 0.12, 0.04, 0.01, 0.005 micromolar (testing set B); 100, 33.3, 11.1, 3.7, 1.2, 0.41 micromolar (testing set C); or 100, 50, 30, 10, 3.3, 1.1, 0.37, 0.12, 0.04 micromolar (testing set D). The plates also had both positive and negative controls. The negative control wells contained only AIM-V medium with no example compound. The positive control wells contained a control set of imiquimod serially diluted to concentrations of either 30, 10, 3.3, 1.1, 0.37, 0.12, 0.04, 0.01 micromolar (control set A); 100, 30, 10, 3.3, 1.1, 0.37, 0.12, 0.04, 0.01, 0.005 micromolar (control set B); 100, 33.3, 11.1, 3.7, 1.2, 0.41 micromolar (control set C); or 100, 50, 30, 10, 3.3, 1.1, 0.37, 0.12, 0.04 micromolar (control set D). The concentrations used in the control set were selected to match the concentrations used in the testing set. The plates were then cultured at 37° C./5% CO2 for 21-24 hours. Cell-free supernatants were harvested by centrifuging the 96-well plates at 2100 rpm, 23° C. for 10 minutes. Approximately 160 microliters of the supernatant was then stored in a NUNC 96-well plate, covered with the compression cap and stored at −80° C. until the cytokine analysis was done.
# IFN-alpha cytokine levels (picograms/mL) were measured by ELISA (human IFN-alpha, pan specific, Mabtech, Cincinnati, Ohio). […]
compound,measurement,setting,value
"C[C@H](n1cnc2c(N)nc3ccccc3c21)C(C)(C)F [Example 21, 1-[(1S)-2-fluoro-1,2-dimethyl-propyl]imidazo[4,5-c]quinolin-4-amine]",cytokine production (statement in words),"IFN-alpha, IFN-gamma, TNF-alpha",inactive toward cytokine production
same,minimal effective concentration,"ELISA, read-out: MEC to Induce Cytokine: IFN-alpha",> 100 µM
same,minimal effective concentration,"multiplex bead assay, read-out: MEC to Induce Cytokine: IFN-gamma",> 100 µM
same,minimal effective concentration,"multiplex bead assay, read-out: MEC to Induce Cytokine: TNF-alpha",> 100 µM

# Reference: patent US20220177471A1, “N-1 BRANCHED ALKYL SUBSTITUTED IMIDAZO[4,5-C]QUINOLINE COMPOUNDS, COMPOSITIONS, AND METHODS” (3M INNOVATIVE PROPERTIES COMPANY, priority 2019, published 2022)
